{"source": "patent US5359073A", "about": "“Substituted-phenyl (N,N'-cycloalkyl/alkyl carboxamide)-1H/3H-imidazo[4,5-b]pyridine compounds as PAF antagonists” (G. D. Searle & Co., priority 1992, dated 1994)", "key": {"[1]": {"target": "T1, PAF receptor (human platelet membrane) (Homo sapiens, UniProt P25105)", "T1 construct": "The platelets were broken by freezing in a dry ice-ethanol bath; tissue Lifesource, Inc. (Glenview, Ill.); host or cells: human packed platelets (membrane preparation)", "T1 sequence (P25105 whole entry)": "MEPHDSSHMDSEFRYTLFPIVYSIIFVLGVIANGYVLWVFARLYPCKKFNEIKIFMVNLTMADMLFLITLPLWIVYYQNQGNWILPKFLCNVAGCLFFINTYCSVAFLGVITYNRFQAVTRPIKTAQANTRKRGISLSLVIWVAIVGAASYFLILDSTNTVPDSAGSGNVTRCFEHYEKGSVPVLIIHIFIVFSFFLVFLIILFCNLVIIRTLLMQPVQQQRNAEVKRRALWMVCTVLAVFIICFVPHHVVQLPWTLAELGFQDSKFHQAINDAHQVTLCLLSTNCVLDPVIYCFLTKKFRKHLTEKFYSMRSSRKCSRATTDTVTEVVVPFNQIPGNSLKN", "assay": "Assay A: Human Platelet Receptor Binding (inhibition of specific [^3 H]PAF binding to human platelet membrane preparation)", "conditions": "for IC50: human platelet membranes, 0.75 nM [^3 H]PAF, 30 minutes at 24° C., pH 7.4", "description": "Compounds of the invention were evaluated for their ability to inhibit specific binding of [^3 H]PAF to human platelet membrane preparation. Human packed platelets were obtained from Lifesource, Inc. (Glenview, Ill.) and washed 3 times with 10 mM Trizma pH 7.0, 2 mM EDTA (dipotassium salt), 150 mM KCL and then once with 10 mM Trizma 7.4, 20 mM CaCL2. The platelets were broken by freezing in a dry ice-ethanol bath, followed by thawing in 24° C. water baths. The preparation was centrifugation (40,000 x g, 20 minutes, 4° C.) and the pellet resuspended in 10 mM Trizma 7.4, 20 mM CaCL2, 5 mg/ml human albumin. Protein concentration in the platelet membrane preparation was determined by the Lowry method [ref]. Aliquots of the membrane preparation were stored at -70° C. Each preparation was characterized for PAF receptor number and dissociation constant (Kd). In binding assays 5 μl of test compound, solubilzed in DMSO, was added to polypropylene tubes along with 0.75 nM [^3 H]PAF and 200 mcl [0.075 nM] of membranes and 95 μl 10 mM Trizma 7.4, 20 mM CaCL2, 5 mg/ml human albumin. Tubes were incubated for 30 minutes at 24° C. The incubation was terminated by adding 4 ml of ice-cold 10 mM Trizma DH 7.4, 20 mM CaCL2 and 20 mg/ml BSA prior to vacuum filtration using Whatman GF/C filters. Filters were prepared and counted for a scintillation counter. All DPM values were corrected for background and isotope decay. Triplicate determinations for single doses were averaged. The amount of non-specific binding was subtracted from all dose averages, giving an amount of specific binding in all cases. The IC50 values for compounds of the invention determined by the Allfit program using percent displacement data. Allfit is a `basic` computer program for simultaneous curve fitting of a family of signoidal dose-response curves using the four parameter logistic equation."}, "[2]": {"system": "PAF-induced aggregation of human platelets", "assay": "Assay B: Human Platelet Aggregation Inhibition (PAF-induced aggregation in human platelet-rich plasma)", "assay_type": "cell-based", "conditions": "37°", "description": "Compounds of the invention were evaluated for their ability to inhibit PAF-induced aggregation of human platelets in a human-platelet-rich plasma. Venous blood was collected from donors who fasted for 8 hours and were instructed not to use antiinflammatory drugs for 2 weeks prior to blood draw. Blood was collected into syringes containing 0.1 ml of 3.8% [w/v] citrate and centrifuged in polypropylene tubes at 150xg for 20 minutes at room temperature. The platelet rich plasma [PRP] was collected and let sit for 20 minutes at room temperature. Platelet activating factor [PAF] was diluted in 0.9% NaCl with 0.25% bovine serum albumin. Silicon treated cuvettes with stir bars were placed in the 37° heating block of the platelet aggregometer [Bio/Data Corporation, Platelet Aggregation Profiler, Model PAP-4]. PRP and test compound were added to cuvettes and aggregation monitored for 10-15 seconds at 37° with stirring. PAF was added and aggregation monitored for an additional 3 minutes. Peak aggregation was considered the peak of the first aggregation wave usually 45-60 seconds after PAF addition. Inhibition of aggregation was determined by the following: 1-[(% aggregation in the presence of compound).div.(% maximal aggregation)]. A log/logit transformation was used to determine half maximal inhibitory concentration of a test compound [IC50 ]."}, "[3]": {"target": "T2, [^3 H]PAF receptors on human neutrophil membrane (Homo sapiens, UniProt P25105)", "T2 construct": "Human neutrophils were isolated from venous blood by dextran sedimentation; from tissue; host or cells: human neutrophils from venous blood (membrane preparation)", "T2 sequence (P25105 whole entry)": "as above", "assay": "Assay C: Human Neutrophil Receptor Binding (inhibition of specific [^3 H]PAF binding to human neutrophil membrane)", "conditions": "human neutrophil membranes, 0.9 nM [^3 H]PAF, 30 minutes at 24°, pH 7.4", "description": "Compounds of the invention were evaluated for their ability to inhibit PAF-induced specific binding of [^3 H]PAF to receptors on human neutrophil membrane. Human neutrophils were isolated from venous blood by dextran sedimentation followed by density gradient centrifugation using Ficoll-Hypaque [J. Biol. Chem., 254:7865-7869, 1979]. Residual red blood cells were removed by hypotonic lysis. Neutrophils were suspended in 50 mM Tris-HCl buffer, pH 7.7, and cells disrupted by sonication for 15 seconds on ice. Unbroken cells and nuclei were removed by slow speed centrifugation [1000xg, 10 min. 4°]. The resultant supernatant was centrifuged at 100,000xg for 60 minutes at 4°. The pellet was suspended in 10 mM Tris-HCl, pH 7.4, with 10 mM MgCl2. Protein content was determined by the method of Lowry [J. Biol. Chem., 193:265-275, 1951]. Membranes were characterized for the concentration of binding sites [Bmax] and affinity for the ligand [Kd] using [^3 H]PAF by Scatchard analysis. Binding assays were conducted by incubating 50 mcg of membranes with 0.9 nM [^3 H]PAF and test compounds in 10 mM Tris-HCl buffer, pH 7.4, containing 0.1% bovine serum albumin. Nonspecific binding was determined by the addition of 1 μM PAF. Binding assay were done for 30 minutes at 24°. The assay was terminated by filtration-through a Whatman GF/C glass filters and radioactivity determined by liquid scintillation counting."}}, "data": [{"smiles": "COc1cc(C(=O)N(C2CCCC2)C2CCCC2)ccc1Cn1cnc2cccnc21", "note": "[Example 1]", "values": [{"measurement": "IC50", "setting": "[1]", "value": 1030, "unit": "nM"}]}, {"smiles": "COc1cc(C(=O)N(C2CCCC2)C2CCCC2)ccc1Cn1cnc2ncccc21", "note": "[Example 2, N, N-dicyclopentyl-4-(1H-imidazo[4,5-b]pyridin-1-ylmethyl)-3-methoxybenzamide]", "values": [{"measurement": "IC50", "setting": "[2]", "value": 227, "unit": "nM"}, {"measurement": "IC50", "setting": "[1]", "value": 78, "unit": "nM"}]}, {"smiles": "COc1cc(Cn2cnc3cccnc32)ccc1C(=O)N(C(C)C)C1CCCCC1", "note": "[Example 3, N-cyclohexyl-4-(3H-imidazo[4,5-b]pyridin-3-ylmethyl)-2-methoxy-N-(1-methylethyl)benzamide]", "values": [{"measurement": "IC50", "setting": "[2]", "value": 7, "unit": "nM"}, {"measurement": "IC50", "setting": "[1]", "value": 2, "unit": "nM"}, {"measurement": "IC50", "setting": "[3]", "value": 0.5, "unit": "nM"}]}, {"smiles": "COc1cc(Cn2cnc3ncccc32)ccc1C(=O)N(C(C)C)C1CCCCC1", "note": "[Example 4, N-cyclohexyl-4-(1H-imidazo[4,5-b]pyridin-1-ylmethyl)-2-methoxy-N-(1-methylethyl)benzamide]", "values": [{"measurement": "IC50", "setting": "[1]", "value": 150, "unit": "nM"}]}, {"smiles": "COc1cc(C(=O)N(C(C)C)C2CCCCC2)ccc1Cn1cnc2cccnc21", "note": "[Example 5, N-cyclohexyl-4-(3H-imidazo[4,5-b]pyridin-3-ylmethyl)-3-methoxy-N-(1-methylethyl)benzamide]", "values": [{"measurement": "IC50", "setting": "[1]", "value": 420, "unit": "nM"}]}, {"smiles": "COc1cc(C(=O)N(C(C)C)C2CCCCC2)ccc1Cn1cnc2ncccc21", "note": "[Example 6, N-cyclohexyl-4-(1H-imidazo[4,5-b]pyridin-1-ylmethyl)-3-methoxy-N-(1-methylethyl)benzamide]", "values": [{"measurement": "IC50", "setting": "[2]", "value": 113, "unit": "nM"}, {"measurement": "IC50", "setting": "[1]", "value": 6, "unit": "nM"}, {"measurement": "IC50", "setting": "[3]", "value": 8, "unit": "nM"}]}, {"smiles": "COc1cc(Cn2cnc3cccnc32)ccc1C(=O)N(C1CCCC1)C1CC(C)CC(C)C1", "note": "(stereo not shown) [Example 7, N-cyclopentyl-N-(3,5-dimethylcyclohexyl)-4-(3H-imidazo[4,5-b]pyridin-3-ylmethyl)-2-methoxybenzamide]", "values": [{"measurement": "IC50", "setting": "[1]", "value": 73, "unit": "nM"}]}, {"smiles": "COc1cc(Cn2cnc3ncccc32)ccc1C(=O)N(C1CCCC1)C1CC(C)CC(C)C1", "note": "(stereo not shown) [Example 8, N-cyclopentyl-N-(3,5-dimethylcyclohexyl)-4-(1H-imidazo[4,5-b]pyridin-1-ylmethyl)-2-methoxybenzamide]", "values": [{"measurement": "IC50", "setting": "[2]", "value": 7, "unit": "nM"}, {"measurement": "IC50", "setting": "[1]", "value": 35, "unit": "nM"}, {"measurement": "IC50", "setting": "[3]", "value": 23, "unit": "nM"}]}, {"smiles": "Cc1cc(C(=O)N(C2CCCCC2)C2CCCC2)ccc1Cn1cnc2ncccc21", "note": "[Example 9, N-cyclohexyl-N-cyclopentyl-4-(1H-imidazo[4,5-b]pyridin-1-ylmethyl)-3-methylbenzamide]", "values": [{"measurement": "IC50", "setting": "[1]", "value": 479, "unit": "nM"}]}, {"smiles": "Cc1cc(C(=O)N(C2CCCCC2)C2CCCC2)ccc1Cn1cnc2cccnc21", "note": "[Example 10, N-cyclohexyl-N-cyclopentyl-4-(3H-imidazo[4,5-b]pyridin-3-ylmethyl)-3-methylbenzamide]", "values": [{"measurement": "IC50", "setting": "[1]", "value": 5240, "unit": "nM"}]}, {"smiles": "COc1cc(C(=O)N(C(C)C)C2CCCCC2)ccc1Cn1c(C)nc2ncccc21", "note": "[Example 11, N-cyclohexyl-3-methoxy-N-(1-methylethyl)-4-[(2-methyl-1H-imidazo[4,5-b]pyridin-1-yl)methyl]benzamide]", "values": [{"measurement": "IC50", "setting": "[1]", "value": 9, "unit": "nM"}]}, {"smiles": "COc1cc(C(=O)N(C(C)C)C2CCCCC2)ccc1Cn1c(C)nc2cccnc21", "note": "[Example 12, N-cyclohexyl-3-methoxy-N-(1-methylethyl)-4-[(2-methyl-3H-imidazo [4,5-b]pyridin-3-yl)methyl]benzamide]", "values": [{"measurement": "IC50", "setting": "[1]", "value": 1160, "unit": "nM"}]}, {"smiles": "COc1cc(Cn2cnc3ncccc32)ccc1C(=O)N(C1CCCCC1)C1CCCC1", "note": "[Example 13, N-cyclohexyl-N-cyclopentyl-4-(1H-imidazo[4,5-b]pyridin-1-ylmethyl)-2-methoxybenzamide]", "values": [{"measurement": "IC50", "setting": "[1]", "value": 206, "unit": "nM"}]}, {"smiles": "COc1cc(C(=O)N(C(C)C)C2CCCCC2)ccc1Cn1c(-c2ccccc2Cl)nc2ncccc21", "note": "[Example 14, 4-[[2-(2-chlorophenyl)-1H-imidazo[4,5-b]pyridin-1-yl]methyl]-N-cyclohexyl-3-methoxy-N-(1-methylethyl)benzamide]", "values": [{"measurement": "IC50", "setting": "[1]", "value": 395, "unit": "nM"}]}, {"smiles": "COc1cc(C(=O)N(C(C)C)C2CCCCC2)ccc1Cn1c(-c2ccccc2Cl)nc2cccnc21", "note": "[Example 15, 4-[[2-(2-chlorophenyl) -3H-imidazo[4,5-b]pyridin-3yl]methyl]-N-cyclohexyl-3-methoxy-N-(1-methylethyl)benzamide]", "values": [{"measurement": "IC50", "setting": "[1]", "value": 574, "unit": "nM"}]}, {"smiles": "COc1cc(C(=O)N(C(C)C)C2CCCCC2)ccc1Cn1c(CO[Si](C)(C)C(C)(C)C)nc2ncccc21", "note": "[Example 16, N-cyclohexyl-4-[[2-[[[(1,1-dimethyethyl)dimethylsilyl]oxy]methyl]-1H-imidazo[4,5-b]pyridin-1-yl]methyl]-3-methoxy-N-(1-methylethyl)benzamide]", "values": [{"measurement": "IC50", "setting": "[1]", "value": 51, "unit": "nM"}]}, {"smiles": "COc1cc(C(=O)N(C(C)C)C2CCCCC2)ccc1Cn1c(CO)nc2ncccc21", "note": "[Example 17, N-cyclohexyl-4-[[2-(hydroxymethyl)-1H-imidazo [4,5-b]pyridin-1-yl]methyl]-3-methoxy-N-(1-methylethyl)benzamide]", "values": [{"measurement": "IC50", "setting": "[1]", "value": 6, "unit": "nM"}]}, {"smiles": "COc1cc(C(=O)N(C(C)C)C2CCCCC2)ccc1Cn1c(CO)nc2cccnc21", "note": "[Example 18, N-cyclohexyl-4-[[2-(hydroxymethyl)-3H-imidazo [4,5-b]pyridin-3-yl]methyl]-3-methoxy-N-(1-methylethyl)benzamide]", "values": [{"measurement": "IC50", "setting": "[1]", "value": 11, "unit": "nM"}]}, {"smiles": "COc1cc(C(=O)N(C(C)C)C2CCCCC2)ccc1Cn1c(CN(C)C)nc2ncccc21", "note": "[Example 19, N-cyclohexyl-4-[[2-[(dimethylamino)methyl]-1H-imidazo[4,5-b]pyridin-1-yl]methyl]-3-methoxy-N-(1-methylethyl)benzamide]", "values": [{"measurement": "IC50", "setting": "[1]", "value": 3, "unit": "nM"}]}, {"smiles": "COc1cc(C(=O)N(C(C)C)C2CCCCC2)ccc1Cn1c(CN(C)C)nc2cccnc21", "note": "[Example 20, N-cyclohexyl-4-[[2-[(dimethylamino)methyl]-3H-imidazo[4,5-b]pyridin-3-yl]methyl]-3-methoxy-N-(1-methylethyl)benzamide]", "values": [{"measurement": "inhibition at 0.01 µM", "setting": "[1]; at 10 nM, two-run average", "value": 62, "unit": "%"}, {"measurement": "IC50", "setting": "[1]", "value": 10, "unit": "nM"}]}, {"smiles": "COCc1nc2ncccc2n1Cc1ccc(C(=O)N(C(C)C)C2CCCCC2)cc1OC", "note": "[Example 21, N-cyclohexyl-3-methoxy-4-[[2-(methoxymethyl)-1H-imidazo [4,5-b]pyridin-1-yl]methyl]-N-(1-methylethyl)benzamide]", "values": [{"measurement": "IC50", "setting": "[1]", "value": 9, "unit": "nM"}]}, {"smiles": "COCc1nc2cccnc2n1Cc1ccc(C(=O)N(C(C)C)C2CCCCC2)cc1OC", "note": "[Example 22, N-cyclohexyl-3-methoxy-4-[[2-(methoxymethyl)-3H-imidazo[4,5-b]pyridin-3-yl]methyl]-N-(1-methylethyl)benzamide]", "values": [{"measurement": "IC50", "setting": "[1]", "value": 88, "unit": "nM"}]}, {"smiles": "COc1cc(C(=O)N(C(C)C)C2CCCCC2)ccc1Cn1c(N(C)C)nc2ncccc21", "note": "[Example 23, N-cyclohexyl-4-[[2-(dimethylamino)-1H-imidazo[4,5-b]pyridin-1-yl]methyl]-3-methoxy-N-(1-methylethyl)benzamide]", "values": [{"measurement": "IC50", "setting": "[1]", "value": 13, "unit": "nM"}]}]}
